Assay results as given in patent US8846704B2, “Thiopyrimidine-based compounds and uses thereof” (YM Biosciences Austraila Pty Ltd, priority 2007, dated 2014).
pIC50: −log10 of the molar value.

Assays:
human JAK2 = target: T1, human JAK2 (Homo sapiens, UniProt O60674); experiment: Alphascreen tyrosine kinase enzyme assay, JAK2 kinase domain; type: biochemical; settings: read-out: JAK2 IC50_nM
T1 construct: The kinase domain of human JAK2 was amplified; GST (N); made in house; host or cells: Sf9 insect cells (baculovirus)
T1 sequence (O60674 849-1124 limits assumed): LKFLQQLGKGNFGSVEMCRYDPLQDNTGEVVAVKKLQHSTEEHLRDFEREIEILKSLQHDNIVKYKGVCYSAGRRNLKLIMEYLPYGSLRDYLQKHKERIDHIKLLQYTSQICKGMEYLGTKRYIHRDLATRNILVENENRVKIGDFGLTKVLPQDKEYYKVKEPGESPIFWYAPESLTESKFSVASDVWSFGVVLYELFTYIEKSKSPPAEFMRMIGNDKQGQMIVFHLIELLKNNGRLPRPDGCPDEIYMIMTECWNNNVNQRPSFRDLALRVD
Outline: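 JAK2 kinase domain expressed in baculovirus/Sf9 and glutathione-affinity purified. Compounds (final […]) pre-incubated 20 min with enzyme in 10 mM HEPES pH 7.5, MgCl2, NaCl, vanadate, 0.1% Tween 20.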

BaF3 wild-type cells = experiment: Cellular screening, BaF3 wild-type cells, Alamar Blue; type: cell-based; settings: Mus musculus, 40 hr, read-out: BAF3wt IC50_nM
Outline: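 Compounds, screened from dilution plates at 20 μM, were added as 10× final stocks to cells grown in DMEM/10% FCS/10% WEHI 3B conditioned medium. Cells were seeded at 1.1× final (50,000–200,000 cells/mL) and incubated 40 hr at 37° C, 5% CO2. Viability was read at 544 nm after a further 4–6 hours with Alamar Blue.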

human JAK3 = target: T2, human JAK3 (Homo sapiens, UniProt P52333); experiment: Alphascreen tyrosine kinase enzyme assay, JAK3 kinase domain; type: biochemical; settings: read-out: JAK3 IC50_nM
T2 construct: The kinase domain of human JAK3 was amplified; GST (N); made in house; host or cells: Sf9 insect cells (baculovirus)
T2 sequence (P52333 822-1111 limits assumed): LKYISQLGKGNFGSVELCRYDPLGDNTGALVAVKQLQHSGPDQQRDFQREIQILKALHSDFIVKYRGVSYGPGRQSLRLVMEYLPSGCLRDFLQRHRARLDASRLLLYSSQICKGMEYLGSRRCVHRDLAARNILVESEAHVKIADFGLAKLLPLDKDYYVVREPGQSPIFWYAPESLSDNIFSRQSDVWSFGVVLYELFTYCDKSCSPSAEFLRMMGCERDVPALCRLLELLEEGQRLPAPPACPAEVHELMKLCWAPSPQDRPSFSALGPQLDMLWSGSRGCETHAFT
Outline: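 GST-affinity-purified human JAK3 kinase domain (baculovirus/Sf9) was pre-incubated 20 min with compound ([…]) in HEPES pH 7.5 buffer with MgCl2, vanadate and Tween 20. Biotinylated peptide substrate ([…]) and ATP were then added; phosphotyrosine was detected by AlphaScreen PY100 acceptor and streptavidin donor beads after 2–3 h.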

[1] = target: T3, BaF3 TELJAK2 cells (BafT_J2) (Homo sapiens, UniProt O60674); experiment: Cellular screening, BaF3 TEL:JAK2 cells, Alamar Blue; type: cell-based; settings: 40 hr, read-out: BafT_J2 IC50_nM
T3 construct: fused on or other part: TEL (ETV6) N-terminal part, coding nucleotides 1-487, serves as the oligomerising partner; It is fused through a Sal I site to the JAK2 kinase domain and expressed from pTRE2 in BaF3 cells bearing pTET-off; P41212 (Transcription factor ETV6)
T3 sequence (O60674 whole entry, change not shown, the tested form may be a part): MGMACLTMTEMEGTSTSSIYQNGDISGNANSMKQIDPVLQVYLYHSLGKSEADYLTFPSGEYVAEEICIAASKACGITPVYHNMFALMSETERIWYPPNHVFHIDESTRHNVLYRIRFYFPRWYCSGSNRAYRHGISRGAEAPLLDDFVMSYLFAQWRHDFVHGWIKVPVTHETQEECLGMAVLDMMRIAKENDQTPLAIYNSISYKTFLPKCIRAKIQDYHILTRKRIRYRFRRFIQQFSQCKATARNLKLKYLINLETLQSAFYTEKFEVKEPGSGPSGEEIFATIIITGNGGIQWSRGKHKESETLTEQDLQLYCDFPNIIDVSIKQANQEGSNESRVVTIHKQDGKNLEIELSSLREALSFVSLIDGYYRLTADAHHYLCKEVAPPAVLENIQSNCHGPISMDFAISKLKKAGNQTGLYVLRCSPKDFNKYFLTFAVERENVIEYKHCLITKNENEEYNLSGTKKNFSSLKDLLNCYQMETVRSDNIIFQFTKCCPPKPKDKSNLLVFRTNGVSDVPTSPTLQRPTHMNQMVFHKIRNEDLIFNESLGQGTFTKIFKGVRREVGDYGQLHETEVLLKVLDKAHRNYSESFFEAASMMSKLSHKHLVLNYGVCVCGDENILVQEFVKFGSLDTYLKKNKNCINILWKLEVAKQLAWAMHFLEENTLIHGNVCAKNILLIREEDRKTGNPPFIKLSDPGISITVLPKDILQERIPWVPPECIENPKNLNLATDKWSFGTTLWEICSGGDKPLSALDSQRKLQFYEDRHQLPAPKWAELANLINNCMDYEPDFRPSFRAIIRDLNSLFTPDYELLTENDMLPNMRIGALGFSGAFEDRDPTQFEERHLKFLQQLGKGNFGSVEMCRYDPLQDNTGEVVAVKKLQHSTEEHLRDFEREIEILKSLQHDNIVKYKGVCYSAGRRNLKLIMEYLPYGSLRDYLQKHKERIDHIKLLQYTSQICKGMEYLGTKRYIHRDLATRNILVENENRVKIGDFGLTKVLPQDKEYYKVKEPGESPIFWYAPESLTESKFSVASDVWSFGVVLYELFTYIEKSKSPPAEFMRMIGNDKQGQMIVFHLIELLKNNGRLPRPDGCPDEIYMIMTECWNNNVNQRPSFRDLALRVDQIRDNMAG
Outline: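 Tet-off BaF3 cells carrying a TEL (nt 1-487)–JAK2 kinase-domain fusion, grown factor-independently in DMEM with 10% Tet-approved FBS without WEHI 3B medium. Compounds were diluted to 20 μM in screening plates, and cells (50,000–200,000 cell/mL at 1.1×) were incubated 40 hr at 37 °C, 5% CO2. Alamar Blue was then added for 4-6 hours; read at 544 nm.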

CTLL2 = experiment: Cellular screening, CTLL2 cells, Alamar Blue; type: cell-based; settings: Mus musculus, CTLL-2, read-out: CTLL2 IC50_nM
Outline: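 Viability is read with Alamar Blue at 544 nm, the dye added for the final 4-6 hours. Compounds were incubated for 40 hr with CTLL2 cells taken from late-log-phase culture, at 37° C in 5% CO2.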

Row | Compound | pIC50 (human JAK2) | pIC50 (BaF3 wild-type cells) | pIC50 (human JAK3) | GI50 [1] | pIC50 (CTLL2)
1 | C=CC(=O)Nc1ccc(Sc2ccnc(Nc3ccc(S(=O)(=O)NCCC(C)C)cc3)n2)cc1 [Compound 371, N-(4-(2-(4-(N-isopentylsulfamoyl)phenylao)pyrimidin-4-ylthio)phenyl)acrylamide] | < 6.00 | > 4.70 | > 7.00 | < 20 µM | > 5.30
2 | COC(=O)COCC(=O)Nc1ccc(Sc2nc(Nc3ccc(N4CCOCC4)cc3)ncc2C)cc1 [Compound 189, methyl 2-(2-(4-(5-methyl-2-(4-morpholinophenylao)pyrimidin-4-ylthio)phenylao)-2-oxoethoxy)acetate] | < 6.00 | > 4.70 | > 6.30 | < 20 µM | < 4.70
3 | C=CC(=O)Nc1ccc(Sc2nc(Nc3ccc(N4CCOCC4)cc3)ncc2C)cc1 [Compound 124, N-(4-(5-methyl-2-(4-morpholinophenylao)pyrimidin-4-ylthio)phenyl)acrylamide] | < 6.00 | < 4.70 | > 7.00 | > 20 µM | > 6.00
4 | Cc1cnc(Nc2ccc(N3CCOCC3)cc2)nc1Sc1ccc2c(c1)CCCN2 [Compound 166, 5-methyl-N-(4-morpholinophenyl)-4-(1,2,3,4-tetrahydroquinolin-6-ylthio)pyrimidin-2-ae] | < 6.00 | > 4.70 | > 6.30 | < 5 µM | > 4.70
5 | C=CC(=O)Nc1ccc(Sc2nc(Nc3cccc(OCCCO)c3)ncc2C)cc1 [Compound 301, N-(4-(2-(3-(3-hydroxypropoxy)phenylao)-5-methylpyrimidin-4-ylthio)phenyl)acrylamide] | < 6.00 | > 4.70 | > 7.00 | < 20 µM | > 6.00
6 | O=C(Nc1ccc(Sc2ccnc(Nc3ccc(N4CCOCC4)cc3)n2)cc1)C1CC1(F)Cl (stereo not drawn) [Compound 378, 2-chloro-2-fluoro-N-(4-(2-(4-morpholinophenylao)pyrimidin-4-ylthio)phenyl)cyclopropanecarboxamide] | < 6.00 | > 6.00 | > 6.30 | < 1 µM | < 4.70
7 | CNC(=O)CCC(=O)Nc1ccc(Sc2nc(Nc3ccc(N4CCOCC4)cc3)ncc2C)cc1 [Compound 386, N1-methyl-N4-(4-(5-methyl-2-(4-morpholinophenylao)pyrimidin-4-ylthio)phenyl)succinamide] | < 6.00 | < 4.70 | > 6.30 | > 20 µM | < 4.70
8 | C=CC(=O)Nc1ccc(Sc2ccnc(Nc3ccc(Cl)cc3)n2)cc1 [Compound 353, N-(4-(2-(4-chlorophenylao)pyrimidin-4-ylthio)phenyl)acrylamide] | < 6.00 | < 4.70 | > 7.00 | < 20 µM | > 5.30
9 | C=CC(=O)Nc1ccc(Sc2ccnc(Nc3cccc(N4CCCC4)c3)n2)cc1 [Compound 355, N-(4-(2-(3-(pyrrolidin-1-yl)phenylao)pyrimidin-4-ylthio)phenyl)acrylamide] | < 6.00 | > 4.70 | > 7.00 | < 20 µM | > 5.30
10 | C=CC(=O)Nc1cc(C)c(Sc2nc(Nc3ccc(N4CCOCC4)cc3)ncc2C)c(C)c1 [Compound 164, N-(3,5-dimethyl-4-(5-methyl-2-(4-morpholinophenylao)pyrimidin-4-ylthio)phenyl)acrylamide] | < 6.00 | < 4.70 | > 7.00 | < 20 µM | > 6.00
11 | C=CC(=O)Nc1ccc(Sc2ccnc(Nc3cccc(S(N)(=O)=O)c3)n2)cc1 [Compound 364, N-(4-(2-(3-sulfamoylphenylao)pyrimidin-4-ylthio)phenyl)acrylamide] | < 6.00 | > 4.70 | > 7.00 | < 5 µM | > 6.00
12 | Cc1cnc(Nc2ccc(N3CCOCC3)cc2)nc1Sc1ccc(N2C(=O)C=CC2=O)cc1 [Compound 390, 1-(4-(5-methyl-2-(4-morpholinophenylao)pyrimidin-4-ylthio)phenyl)-1H-pyrrole-2,5-dione] | > 6.30 | > 5.30 | > 7.00 | < 5 µM | > 5.30
13 | C=CC(=O)Nc1ccc(Sc2nc(Nc3ccc4c(c3)OCO4)ncc2C)cc1 [Compound 284, N-(4-(2-(benzo[d][1,3]dioxol-5-ylao)-5-methylpyrimidin-4-ylthio)phenyl)acrylamide] | < 6.00 | > 4.70 | > 7.00 | < 20 µM | > 6.00
14 | C=CC(=O)Nc1ccc(Sc2ccnc(Nc3cccc(S(=O)(=O)N4CCN(C)CC4)c3)n2)cc1 [Compound 365, N-(4-(2-(3-(4-methylpiperazin-1-ylsulfonyl)phenylao)pyrimidin-4-ylthio)phenyl)acrylamide] | < 6.00 | > 4.70 | > 7.00 | < 20 µM | > 4.70
15 | NC(=O)c1nccn1Cc1ccc(Sc2ccnc(Nc3ccc(N4CCOCC4)cc3)n2)cc1 [Compound 149, 1-(4-(2-(4-morpholinophenylao)pyrimidin-4-ylthio)benzyl)-1H-imidazole-2-carboxamide] | < 6.00 | > 5.30 | > 6.30 | < 5 µM | > 4.70
16 | Nc1ccc(Sc2nc(Nc3ccc(N4CCOCC4)cc3)ncc2Cl)cc1 [Compound 318, 4-(4-aophenylthio)-5-chloro-N-(4-morpholinophenyl)pyrimidin-2-ae] | < 6.00 | > 4.70 | > 7.00 | > 20 µM | > 4.70
17 | C=CC(=O)Nc1ccc(Sc2ccnc(Nc3ccc(S(=O)(=O)N4CCN(C)CC4)cc3)n2)cc1 [Compound 370, N-(4-(2-(4-(4-methylpiperazin-1-ylsulfonyl)phenylao)pyrimidin-4-ylthio)phenyl)acrylamide] | < 6.00 | > 4.70 | > 7.00 | < 20 µM | > 5.30
18 | CCOC(=O)c1nccn1Cc1ccc(Sc2ccnc(Nc3ccc(N4CCOCC4)cc3)n2)cc1 [Compound 148, ethyl 1-(4-(2-(4-morpholinophenylao)pyrimidin-4-ylthio)benzyl)-1H-imidazole-2-carboxylate] | < 6.00 | > 4.70 | > 6.30 | < 20 µM | > 4.70
19 | CC#CC(=O)Nc1ccc(Sc2ccnc(Nc3ccc(N4CCOCC4)cc3)n2)cc1 [Compound 104, N-(4-(2-(4-morpholinophenylao)pyrimidin-4-ylthio)phenyl)but-2-ynamide] | < 6.00 | < 4.70 | > 7.00 | > 20 µM | > 5.30
20 | C=CC(=O)Nc1ccc(Sc2ccnc(Nc3ccc(N4CCOCC4)cc3)n2)c(Cl)c1C [Compound 161, N-(3-chloro-2-methyl-4-(2-(4-morpholinophenylao)pyrimidin-4-ylthio)phenyl)acrylamide] | < 6.00 | < 4.70 | > 7.00 | > 20 µM | > 5.30
21 | C=CC(=O)Nc1ccc(Sc2nc(Nc3cccc(OC(F)(F)F)c3)ncc2C)cc1 [Compound 289, N-(4-(5-methyl-2-(3-(trifluoromethoxy)phenylao)pyrimidin-4-ylthio)phenyl)acrylamide] | < 6.00 | < 4.70 | > 7.00 | < 20 µM | > 6.00
22 | C=CC(=O)Nc1ccc(Sc2nc(Nc3ccc(O)cc3)ncc2C)cc1 [Compound 282, N-(4-(2-(4-hydroxyphenylao)-5-methylpyrimidin-4-ylthio)phenyl)acrylamide] | < 6.00 | > 4.70 | > 7.00 | < 20 µM | > 6.00
23 | C=CC(=O)Nc1ccc(Sc2ccnc(Nc3ccc(OC)c(O)c3)n2)cc1 [Compound 97] | < 6.00 | > 4.70 | > 7.00 | < 5 µM | > 6.00
24 | O=C(CCl)Nc1cccc(Sc2ccnc(Nc3ccc(N4CCOCC4)cc3)n2)c1 [Compound 332, 2-chloro-N-(3-(2-(4-morpholinophenylao)pyrimidin-4-ylthio)phenyl)acetamide] | < 6.00 | > 5.30 | > 7.00 | < 5 µM | > 5.30
